The structures appear in SMILES notation.

One experiment addresses human TNF-R1/TNFα (Homo sapiens, UniProt P01375+P19438). In words: Specificity test: human TNF-R1/TNFα binding inhibition assay. Conditions: for IC50: cell-free binding, read-out: Human TNFR1/TNFα IC50. From the text:
A main concern for the therapeutic applicability of these compounds and of small molecule PPI inhibitors in general is related to their ability to achieve some acceptable degree of selectivity/specificity for the PPI of interest. To identify compounds that show acceptable specificity for the CD40/CD154 system, their ability to inhibit the TNF-R1/TNF-α PPI was investigated since this is particularly relevant as CD154 is part of the TNF superfamily. The experimental setup used was very similar to the one described in Example 1, but using plate-coated TNF-R1 and TNF-α as ligand (with a corresponding anti-TNF-α mAb as positive control). The concentration of TNF-R1 and TNF-α used were 0.6 μg/mL and 0.02 μg/mL, respectively.

Experiment [1] has as its target P2 (ATP/UTP purine receptor). Conditions: read-out: IC50, P2 antagonist; cited from earlier work.
Experiment [2] has as its target T1, mouse CD40/CD154 (mCD40:mCD154) (Mus musculus, UniProt P27548).
T1 construct: (FLAG-tagged) mCD154 (recombinant mouse CD40L, soluble, Alexis Biochemicals); purchased R&D Systems (mCD40/Fc); Alexis Biochemicals (mCD154)
T1 sequence (P27548 112-260 limits assumed): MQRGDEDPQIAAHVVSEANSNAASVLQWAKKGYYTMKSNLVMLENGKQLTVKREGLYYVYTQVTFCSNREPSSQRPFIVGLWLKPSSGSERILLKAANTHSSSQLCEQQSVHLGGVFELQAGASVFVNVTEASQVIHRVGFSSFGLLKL
Nature of the experiment: Murine CD40/CD154 binding inhibition assay. Conditions: for IC50: cell-free binding, read-out: Mouse CD40/CD154 IC50. Here is the method: Compounds of interest were also tested in a murine (mouse) model similar to the human one with murine CD40 and CD154 replacing the corresponding human proteins. This serves as additional confirmation of the in vitro inhibitory potential of these compounds, and it was considered important because mouse models are likely to be used as the first in vivo tests. […] The experimental setup used was similar to the one described above, but using mCD40 (recombinant mouse CD40/TNFRSF5/Fc Chimera, soluble, R&D Systems) and (FLAG-tagged) mCD154 (recombinant mouse CD40L, soluble, Alexis Biochemicals). This time, however, a higher concentration of CD154 ligand had to be employed to obtain adequate signals, and after a number of calibration tests, mCD40 coating at 0.3125 μg/mL with mCD154 (mCD40L) at 1.1212 μg/mL range was selected to be used to screen the inhibiting activity of various compounds.
The experiments confirmed that the murine anti-CD154 monoclonal antibody (Taconic, MR1) was active in this system at the expected concentration (˜1 nM range), the human antibody was not, and vice versa, the human mAb was active in the human system, but not in the mouse system. The mouse system provided a similar range of activity with some (up to approximately five-fold) changes in activities compared to that seen in the human system (FIG. 2) (Table 1).

The test system of a further experiment is human CD19+ B cells. Nature of the experiment: Inhibition of CD154-induced human B-cell proliferation (BrdU ELISA). The class given is cell-based. From the text:
CD40 stimulation is an important proliferation signal for human B cell proliferation (Fecteau et al., “CD40 stimulation of human peripheral B lymphocytes: distinct response from naive and memory cells. J. Immunol., vol. 171, pp. 4621-4629, 2003; Wiesner et al., “Conditional immortalization of human B cells by CD40 ligation,” PLoS ONE, vol. 3, pp. e1464, 2008), and soluble CD154 (CD40 ligand) can dose-dependently induce the proliferation of human CD19^+ B cells as measured by standard proliferation .assays. […]
The detailed procedure is as follows: Frozen MPB CD19^+ B lymphocytes (approximately 10^6 cells per vial) were obtained from StemCells Technologies (Vancouver, Canada), thawed in a 37° C. water bath until no crystal piece was left, and the cell suspension was transferred to a 50 mL conical tube. […] This was repeated, the cells were counted, and the concentration of viable cells was adjusted to approximately 1×10^6 cells/mL. […] A colorimetric cell proliferation ELISA BrdU from Roche Applied Science (Indianapolis, Ind.) was used as immunoassay for quantification of cell proliferation based on the measurement of BrdU incorporation during DNA replication. […]
(Dividing cells build labelled thymidine or BrdU into new DNA.)

Sequence of human TNF-R1/TNFα (P01375 77-233 limits assumed): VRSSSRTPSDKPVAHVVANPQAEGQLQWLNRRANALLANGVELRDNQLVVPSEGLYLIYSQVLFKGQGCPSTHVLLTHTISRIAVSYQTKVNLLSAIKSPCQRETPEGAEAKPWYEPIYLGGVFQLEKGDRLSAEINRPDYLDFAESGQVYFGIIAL
Sequence of human TNF-R1/TNFα (P19438 30-211 limits assumed): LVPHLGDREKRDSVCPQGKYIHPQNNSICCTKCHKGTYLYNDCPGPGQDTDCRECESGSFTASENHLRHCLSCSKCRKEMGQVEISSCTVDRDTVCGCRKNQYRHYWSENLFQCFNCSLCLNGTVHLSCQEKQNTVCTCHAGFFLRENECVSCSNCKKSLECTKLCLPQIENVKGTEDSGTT

`Cc1ccc(C(=O)Nc2ccc(S(=O)(=O)O)c3cc(S(=O)(=O)O)cc(S(=O)(=O)O)c23)cc1NC(=O)c1cccc(NC(=O)Nc2cccc(C(=O)Nc3cc(C(=O)Nc4ccc(S(=O)(=O)O)c5cc(S(=O)(=O)O)cc(S(=O)(=O)O)c45)ccc3C)c2)c1` [Suramin, reference compound]: the IC50 on human TNF-R1/TNFα is 486 µM; in experiment [1], 5 to 10 µM; in experiment [2] it was 4.5 µM; with human CD19+ B cells (Homo sapiens, B-cell, CD19+ B cells, 48 h + 48 h BrdU) it was 50 to 100 µM.

Take `O=C([O-])C1=NN(c2ccc(S(=O)(=O)[O-])cc2)C(=O)C1N=Nc1ccc(S(=O)(=O)[O-])cc1.[Na+].[Na+].[Na+]` (stereo not drawn) [Tartrazine (FD&C yellow 5), Tartrazine, reference compound]: the IC50 (on human TNF-R1/TNFα; in experiment [2]) was above 2000 µM each time. For the same compound, at human TNF-R1/TNFα (log of IC50, cell-free binding), the “Human TNFR1/TNFα log IC50” value is on record as above −3.0. Also, the “Mouse CD40/CD154 log IC50” value in experiment [2] (log of IC50, cell-free binding) is listed as above −3.0. For the same compound, the “Inhibition of CD154-induced B-cell proliferation” value with human CD19+ B cells is “no proliferation inhibiting activity”.

These data come from patent publication US20110065675A1, “AZO DYE RELATED SMALL MOLECULE MODULATORS OF PROTEIN-PROTEIN INTERACTIONS” (University of Miami, priority 2008, published 2011).
